Measured values: patent publication US4851414A, “Anti-dementia agent” (Kyowa Hakko Kagyo Co., Ltd., priority 1987, dated 1989)

Columns and labels:
[1] = Activity on Electroconvulsive Shock-induced Amnesia (step-through passive avoidance, light-and-dark box); type: in vivo, mouse (dd strain, male); details: for reaction latent time: Tables 2-2, 2-3 and 2-4, oral
Procedure: The antiamnestic activity was measured by using the light-and-dark box method. Symbols of the test compounds correspond to said compounds (Table 1).
As the test animals, 14 to 15 dd strain male mice (body weight: 23-28 g) were used for each group. As the experimental device, a step-through type passive avoidance training box composed of a light room and a dark room (light room: 130×90×90 mm; dark room 180×90×90 mm) was used.
In the acquisition trial where learning takes place, mice put in the light room move to the dark room. Each time the mice entered the dark room, electric stimulation of 0.25 mA was given to four limbs of each mouse for 2 seconds from grids on the floor.
Amnesia-inducing treatment was performed by electroconvulsive shock (2,000 V, 25 mA, 0.2 seconds) immediately after completion of the acquisition trial. After 24 hours, the test trial was conducted to measure the length of time before the mice entered the dark room. This time period, termed the reaction latent time, was recorded. A reaction latent time longer than 600 seconds was recorded as 600 seconds.
A test compound was suspended in 0.3% sodium carboxymethyl cellulose (hereinafter referred to as "CMC"). That suspension and a control of 0.3% CMC without any test compound were respectively administered to the mice 60 minutes prior to each test trial.
The effect was evaluated by Student-t test to determine whether there was a significant difference in reaction latent time between the amnesia control group and the group administered with the test compound in the passive avoidance test trial.

Acute Toxicity, mice = details: in vivo; oral, mouse (male)
Procedure: (§1) Acute toxicity test was carried out by orally administering Compound (I) used in the present invention to mice (male) and rats (male).

Acute Toxicity, rats = details: in vivo; oral, rat (male)
Procedure: as §1

[2] = Activity on Scopolamine-induced Amnesia (step-through passive avoidance); type: in vivo, rat (Wistar strain, male); details: for Number of Rats that Reached Standard Point / Number of Rats Tested: standard point 600 seconds
Source text: As the experimental device, a step-through type passive avoidance training box composed of a light room and a dark room (light room: 400×400×400 mm; dark room 200×150×200 mm) was used. In the acquisition trial where learning is made, rats put in the light room move to the dark room. Each time the rats entered the dark room, electric stimulation of 2 mA was given to four limbs of each rat for 3 seconds from grids on the floor.

[3] = Activity on Amnesia due to Damage of Basal Forebrain (kainic acid lesion, passive avoidance); type: in vivo, rat (Wistar strain, male); details: for Number of Rats that Reached Standard Point / Number of Rats Tested: standard point 600 seconds
Procedure: As the test animals, 13 to 39 Wistar strain male rats (body weight: 250-300 g) were used for each group. Amnesia-inducing treatment was effected by damaging the basal forebrain through injection of 0.2 μg/μl kainic acid at the basal forebrain from both sides under anesthesia with pentobarbital-Na.
After the recovery period of about 10 days following the operation, the trial for acquiring learning (training) was performed in a similar manner using the same experimental device as in Experiment 2. After 24 hours, the test trial was carried out.
Measurement of the latent time was carried out in a similar manner as in Experiment 1. Test Compound B and idebenone were suspended in 0.3% CMC, and the suspension was administered twice 60 minutes prior to the training and 60 minutes prior to the test.
Alternatively, the suspension was administered for 9 consecutive days after the recovery period. In this case, Compound B was orally administered and idebenone was intraperiotoneally administered; and the training was conducted on day 8 and the test trial was conducted on day 9. […]

[4] = 2.5 mg/kg, administered for 9 days, oral
[5] = 10 mg/kg, administered for 9 days, oral
[6] = idebenone intraperitoneal, imipramine oral
[7] = 2.5 mg/kg, administered for 9 days, intraperitoneal
[8] = 10 mg/kg, administered for 9 days, intraperitoneal

CN(C)CCC=C1c2ccccc2CCc2ccccc21 [Amitriptyline, amitriptyline, reference compound]
ataxis in motor coordination, order of intensity ([1]; mouse, in vivo, po): amitriptyline>desipramine>imipramine

CC(=O)Nc1ccc(Cc2ccccn2)c([N+](=O)[O-])c1 [Compound A, α-(p-Acetylamino-o-nitrobenzyl)pyridine]
LD50 (Acute Toxicity, mice): 660 mg/kg | reaction latent time [1]: prolonged | LD50 (Acute Toxicity, rats): > 200 mg/kg

CCCC(=O)Nc1ccc(Cc2ccccn2)c([N+](=O)[O-])c1 [Compound B, α-(p-Butyrylamino-o-nitrobenzyl)pyridine]
Test Trial Mean Reaction Latent Time ([2]; 2.5 mg/kg, oral): 94.3 ± 30.3 s | Number of Rats that Reached Standard Point / Number of Rats Tested ([2]; 2.5 mg/kg, oral): 1/20 | Test Trial Mean Reaction Latent Time ([2]; 5 mg/kg, oral): 148.9 ± 54.3 s | Number of Rats that Reached Standard Point / Number of Rats Tested ([2]; 5 mg/kg, oral): 3/17 | Test Trial Mean Reaction Latent Time ([2]; 10 mg/kg, oral): 201.2 ± 55.5 s | Number of Rats that Reached Standard Point / Number of Rats Tested ([2]; 10 mg/kg, oral): 4/20 | Test Trial Mean Reaction Latent Time ([2]; 20 mg/kg, oral): 172.4 ± 52.6 s | Number of Rats that Reached Standard Point / Number of Rats Tested ([2]; 20 mg/kg, oral): 2/17 | Test Trial Mean Reaction Latent Time ([2]; 40 mg/kg, oral): 171.2 ± 52.5 s | Number of Rats that Reached Standard Point / Number of Rats Tested ([2]; 40 mg/kg, oral): 4/20 | antiamnestic activity ([2]; oral, dose of 5 to 40 mg/kg): showed an antiamnestic activity | Test Trial Mean Reaction Latent Time [3, 4]: 243.2 ± 73.7 s | Number of Rats that Reached Standard Point / Number of Rats Tested [3, 4]: 4/13 | Test Trial Mean Reaction Latent Time ([3]; 2.5 mg/kg, administered twice): 121.8 ± 36.5 s | Number of Rats that Reached Standard Point / Number of Rats Tested ([3]; 2.5 mg/kg, administered twice): 1/19 | Test Trial Mean Reaction Latent Time ([3]; 5 mg/kg, administered twice): 215.5 ± 60.0 s | Number of Rats that Reached Standard Point / Number of Rats Tested ([3]; 5 mg/kg, administered twice): 5/19 | Test Trial Mean Reaction Latent Time [3, 5]: 259.0 ± 78.5 s | Number of Rats that Reached Standard Point / Number of Rats Tested [3, 5]: 5/13 | Test Trial Mean Reaction Latent Time ([3]; 10 mg/kg, administered twice): 191.2 ± 57.7 s | Number of Rats that Reached Standard Point / Number of Rats Tested ([3]; 10 mg/kg, administered twice): 3/18 | Test Trial Mean Reaction Latent Time ([3]; 20 mg/kg, administered twice): 209.2 ± 60.2 s | Number of Rats that Reached Standard Point / Number of Rats Tested ([3]; 20 mg/kg, administered twice): 4/18 | Test Trial Mean Reaction Latent Time ([3]; 40 mg/kg, administered twice): 163.0 ± 51.5 s | Number of Rats that Reached Standard Point / Number of Rats Tested ([3]; 40 mg/kg, administered twice): 2/18 | improving activity ([3]; 9 consecutive days, 10 mg/kg, oral): significant (P<0.05) improving activity | activity of alleviating learning disturbance ([3]; administered twice, 2.5 mg/kg or more): showed an activity of alleviating learning disturbance | improving activity in the learning-disturbed animal model ([3]; rat, in vivo): apparent improving activity | LD50 (Acute Toxicity, mice): 1530 mg/kg | reaction latent time compared with the amnestic control group ([1]; doses of 10, 40, 80 and 160 mg/kg, oral): significantly prolonged | LD50 (Acute Toxicity, rats): > 850 mg/kg

CCCCC(=O)Nc1ccc(Cc2ccccn2)c([N+](=O)[O-])c1 [Compound C, α-(p-Valerylamino-o-nitrobenzyl)pyridine]
LD50 (Acute Toxicity, mice): > 300 mg/kg | reaction latent time [1]: prolonged

CCCCCC(=O)Nc1ccc(Cc2ccccn2)c([N+](=O)[O-])c1 [Compound D, α-(p-Hexanoylamino-o-nitrobenzyl)pyridine]
LD50 (Acute Toxicity, mice): > 1000 mg/kg | reaction latent time [1]: prolonged | LD50 (Acute Toxicity, rats): > 100 mg/kg

CCCCCCCC(=O)Nc1ccc(Cc2ccccn2)c([N+](=O)[O-])c1 [Compound E, α-(p-Octanoylamino-o-nitrobenzyl)pyridine]
LD50 (Acute Toxicity, mice): > 1000 mg/kg | LD50 (Acute Toxicity, rats): > 100 mg/kg

CCCCCCCCCC(=O)Nc1ccc(Cc2ccccn2)c([N+](=O)[O-])c1 [Compound F, α-(p-Decanoylamino-o-nitrobenzyl)pyridine]
LD50 (Acute Toxicity, mice): > 1000 mg/kg | LD50 (Acute Toxicity, rats): > 100 mg/kg

CCCCCCCCCCCCCC(=O)Nc1ccc(Cc2ccccn2)c([N+](=O)[O-])c1 [Compound G, α-(p-Myristylamino-o-nitrobenzyl)pyridine]
LD50 (Acute Toxicity, mice): > 1000 mg/kg | reaction latent time [1]: prolonged | LD50 (Acute Toxicity, rats): > 100 mg/kg

CNCCCN1c2ccccc2CCc2ccccc21 [Desipramine, desipramine, reference compound]
ataxis in motor coordination, order of intensity ([1]; Table 2-6, oral): amitriptyline>desipramine>imipramine

COC1=C(OC)C(=O)C(CCCCCCCCCCO)=C(C)C1=O [Idebenone, idebenone, reference compound]
Test Trial Mean Reaction Latent Time ([2]; 2.5 mg/kg, intraperitoneal): 58.4 ± 19.7 s | Number of Rats that Reached Standard Point / Number of Rats Tested ([2]; 2.5 mg/kg, intraperitoneal): 0/10 | Test Trial Mean Reaction Latent Time ([2]; 5 mg/kg, intraperitoneal): 110.6 ± 30.2 s | Number of Rats that Reached Standard Point / Number of Rats Tested ([2]; 5 mg/kg, intraperitoneal): 0/10 | Test Trial Mean Reaction Latent Time ([2]; 10 mg/kg, intraperitoneal): 148.8 ± 60.2 s | Number of Rats that Reached Standard Point / Number of Rats Tested ([2]; 10 mg/kg, intraperitoneal): 0/10 | antiamnestic activity [2, 6]: showed no antiamnestic activity | Test Trial Mean Reaction Latent Time [3, 7]: 382.8 ± 80.2 s | Number of Rats that Reached Standard Point / Number of Rats Tested [3, 7]: 7/13 | Test Trial Mean Reaction Latent Time [3, 8]: 178.2 ± 68.2 s | Number of Rats that Reached Standard Point / Number of Rats Tested [3, 8]: 3/13 | Test Trial Mean Reaction Latent Time ([3]; 10 mg/kg, administered twice): 52.0 ± 22.1 s | Number of Rats that Reached Standard Point / Number of Rats Tested ([3]; 10 mg/kg, administered twice): 0/14 | Test Trial Mean Reaction Latent Time ([3]; 20 mg/kg, administered twice): 15.2 ± 3.4 s | Number of Rats that Reached Standard Point / Number of Rats Tested ([3]; 20 mg/kg, administered twice): 0/14 | Test Trial Mean Reaction Latent Time ([3]; 40 mg/kg, administered twice): 27.7 ± 8.9 s | Number of Rats that Reached Standard Point / Number of Rats Tested ([3]; 40 mg/kg, administered twice): 0/14 | improving effect ([3]; 9 consecutive days, 2.5 mg/kg, intraperitoneal): apparent improving effect | improving effect ([3]; administered twice, 10 to 40 mg/kg): showed no improving effect

CN(C)CCCN1c2ccccc2CCc2ccccc21 [Imipramine, imipramine]
Test Trial Mean Reaction Latent Time ([2]; 20 mg/kg, oral): 110.4 ± 44.3 s | Number of Rats that Reached Standard Point / Number of Rats Tested ([2]; 20 mg/kg, oral): 1/13 | Test Trial Mean Reaction Latent Time ([2]; 40 mg/kg, oral): 186.6 ± 54.0 s | Number of Rats that Reached Standard Point / Number of Rats Tested ([2]; 40 mg/kg, oral): 1/13 | antiamnestic activity [2, 6]: showed no antiamnestic activity | ataxis in motor coordination, order of intensity ([1]; Table 2-6, oral): amitriptyline>desipramine>imipramine
